The test system of one assay is NOS2. Description: NOS2 and NeuN staining in wild type mice treated with DSP4 and injected with Aβ1-42. Format: in vivo. The conditions noted are these: Aβ1-42 injected. How it is done: Genotyping was performed to confirm identity of NOS2 null and wild type littermates (FIG. 7A), and wild type mice treated with DSP4, and wild type mice treated with DSP4 and injected with oligomeric Aβ1-42 (FIG. 7B). One day later brain sections were analyzed for NOS2 (green) and NeuN (red) staining White arrows indicate neurons labeled with both antibodies.
Wild type and NOS2 null mice were treated with two i.p. injections of DSP4 as described below, and injected with oligomeric Aβ1-42 4 weeks after the second DSP4 injection. One day later brain sections were prepared from the mice, sections from wild type (FIG. 8A) and NOS2 null mice (FIG. 8B) were stained for SMI-32.
Slides were washed for 5 min. with PBS and blocked with 5% normal donkey serum in PBS at room temperature for 30 min. Primary antibodies were diluted in 1% normal donkey serum in PBS. […] Images were obtained on a Zeiss Axioplan2 fluorescence microscope equipped with an Axiocam MRm digital camera and Axiovision 4.2 imaging software.
Quantitative analysis of NOS2 positively staining cells was performed as described above. In brief, NOS2 positive containing neurons having large cell bodies were counted in 5 sections having a defined distance (0, 200 and 400 μm rostral and caudal) relative to the level of cortical injection, in brain sections from at least 3 or 4 animals per group. […]

The next assay relates to LC noradrenergic neurons. Description: Lesion of the locus coeruleus with DSP4 in H6 mice. Format: in vivo. The conditions noted are these: DSP4 5 mg per kg i.p. every two weeks, H6 mice from age 3-4 months, sacrificed at 9 months. The protocol: Hemizygous male H6 mice (aged 3 to 4 months) were injected with vehicle or with DSP4 (5 mg per kg; i.p., every two weeks) and all mice were sacrificed at age 9 months. This protocol (a low, chronic dose) results in 70% loss of LC noradrenergic neurons. Brains were dissected, the left hemispheres were fast frozen in isopentane at −30° C. and stored at −80° C. for subsequent protein and RNA studies. The right hemispheres were processed for immunohistochemistry.
A chronic treatment paradigm was chosen using a relatively low dose (5 mg/kg) which may better reproduce the slow onset of NA dysfunction that is seen with aging in humans, and a gradual rather than abrupt loss of LC neurons.

Assay [1] concerns insulin degrading enzyme (IDE). Description: QPCR of insulin degrading enzyme mRNA in brain samples. The format is in vivo, mice. The conditions noted are these: cortical samples, versus vehicle. How it is done:
Total cytoplasmic RNA from tissues was isolated using TRIZOL reagent, (Invitrogen/GIBCO); aliquots were converted to cDNA using random hexamer primers, and mRNA levels were estimated by quantitative touchdown PCR (QPCR). PCR conditions were 35 cycles of denaturation at 94° C. for 10 s; annealing at 58-64° C. for 15 s; and extension at 72° C. for 20 s on a Corbett Rotorgene Real-Time PCR unit (Corbett, Australia). PCR was done using Taq DNA Polymerase (Invitrogen), and contained SYBR Green (SybrGreen1 10,000× concentrate, diluted 1:10,000; Molecular Probes, Eugene, Oreg.). Relative mRNA concentrations were calculated from the takeoff point of reactions using manufacturer's software, and were normalized to α-tubulin, β-actin, and glyceraldehyde-3-phosphate dehydrogenase (GDH). Melting curve analysis and agarose gel electrophoresis ensured production of single and corrected size products. The primers used were: […]
Comparative real time RT-PCR (or quantitative PCR, QPCR) was used to measure mRNA levels of the Aβ degrading enzymes neprilysin (Nep) and insulin degrading enzyme (IDE) in brain samples from vehicle and DSP4 treated mice (FIG. 4A). […] To assess the effects of dose, mouse neuronal N2A cells were incubated with increasing does of NA for 24 hr after which NEP activity was measured (FIG. 4D, data is mean±sd and is from n=3 samples). […]

SMILES strings stand for the structures.

Turning to `CCN(CCCl)Cc1ccccc1Br` [DSP4, N-(2-chloroethyl)-N-ethyl-2-bromobenzylamine], the “NOS2 expression in neurons” value in the assay with NOS2 is “increases NOS2 expression in neurons”. In addition, the “loss of LC noradrenergic (TH positive) neurons” value with LC noradrenergic neurons was found to be 70%. In addition, the “levels of insulin degrading enzyme (IDE) mRNA” value in assay [1] was “small, non-significant reductions”.

The values above are taken from US8580776B2, “Compositions and methods for treating neurodegenerating diseases” (The Board of Trustees of the University of Illinois, priority 2007, dated 2013).
